Test: Apparent viscosity by rheometry (HAAKE RheoStress RS300, stress controlled mode, Cross model)
Type: physicochemical
Details: for Viscosity, γ = 1: shear rate 1 s^−1, 25° C.; for Viscosity, γ = 1 / Viscosity, γ = 10 / Viscosity, γ = 100 / Viscosity, γ = 200: Milli-Q water, concentration per Table 3; for Viscosity, γ = 10: shear rate 10 s^−1, 25° C.; for Viscosity, γ = 100: shear rate 100 s^−1, 25° C.; for Viscosity, γ = 200: shear rate 200 s^−1, 25° C.
Method: Aqueous solutions of HA:CS mixtures (control) and atomized complexes at different weight ratios of sodium hyaluronate and chondroitin sulphate were prepared for rheological characterization. Their rheological profile was determined using a HAAKE RheoStress RS300 rheometer in stress controlled mode. A 1° cone and 35 mm diameter plate was used.
Controls and 1:1 and 1:10 complexes were reconstituted in Milli-Q water.
Based on an applied shear stress, viscosity of the samples was measured at 25° C. All samples fitted in a Cross model, which allowed to compare the results obtained.

| Substance | Viscosity, γ = 1 [mPa · s] | Viscosity loss, γ = 1 (shear rate 1 s^−1, difference in viscosity of a sample with respect its control) [%] | Viscosity, γ = 10 [mPa · s] | Viscosity loss, γ = 10 (shear rate 10 s^−1, difference in viscosity of a sample with respect its control) [%] | Viscosity, γ = 100 [mPa · s] | Viscosity loss, γ = 100 (shear rate 100 s^−1, difference in viscosity of a sample with respect its control) [%] | Viscosity, γ = 200 [mPa · s] | Viscosity loss, γ = 200 (shear rate 200 s^−1, difference in viscosity of a sample with respect its control) [%] |
| --- | --- | --- | --- | --- | --- | --- | --- | --- |
| sodium hyaluronate [Sample 2] | 3378.5 | 30.8 | 1924.5 | 16.5 | 522.0 | 9.6 | 326.5 | 12.9 |
| sodium hyaluronate [Sample 1] | 4884.3 | – | 2307.0 | – | 578.0 | – | 375.0 | – |

— US8980866B2, “Complex obtained from hyaluronic acid or a salt thereof and chondroitin sulphate mixtures” (Quimera Ingenieria Biomedica, S.L., priority 2011, dated 2015)
